# Source: patent US9670203B2 (BeiGene, LTD., priority 2013, dated 2017)
# Like-named read-outs stand apart in the source and are kept apart here.
# Experiments:
# [1] = molecular target: wild type B-Raf (Homo sapiens (Human), UniProt P15056); experiment: WT B-Raf IC50 assay, time-resolved fluorescence energy transfer; type: biochemical
# Method: The IC50 for each compound was calculated by non linear regression by Graphpad Prism software.
# [2] = molecular target: B-Raf (V600E) (Homo sapiens (Human), UniProt P15056, V600E); experiment: Raf IC50 assay, time-resolved fluorescence energy transfer, B-Raf (V600E); type: biochemical; settings: 0.1 mM ATP; read-out: IC50 (nM) B_Raf^V600E
# Method: The enzyme was incubated with the compounds at room temperature for 60 minutes and the reactions were initiated by the addition of ATP and GST-MEK1. After reaction at room temperature for 60 minutes, an equal volume of stop/detection solution was added according to the manufacture's instruction (CisBio Bioassays). […] The IC50 for each compound was derived from fitting the dose-response % inhibition data to the four-parameter logistic model by Graphpad Prism software.
# [3] = molecular target: C-Raf (Y340D/Y341D) (Homo sapiens (Human), UniProt P04049, Y340D/Y341D); experiment: Raf IC50 assay, time-resolved fluorescence energy transfer, C-Raf (Y340D/Y341D); type: biochemical; settings: 0.1 mM ATP
# Method: The assay was carried out in reactions (10 μL) containing 0.0625 nM B-Raf or 0.5 nM C-Raf, 25 mM Tris pH7.4, 10 mM MgCl2, 0.5 mM EGTA, 0.5 mM Na3VO4, 5 mM beta-glycerophosphate, 0.01% Triton X-100, 2.5 mM DTT, 0.1% BSA, 0.1 mM ATP, 13.7 nM GST-tagged MEK1 (Full-length protein with K97R mutation, recombinant protein purified from bacterial expression system) and 0-5 μM compounds disclosed herein (final concentration of 1% DMSO). The enzyme was incubated with the compounds at room temperature for 60 minutes and the reactions were initiated by the addition of ATP and GST-MEK1. After reaction at room temperature for 60 minutes, an equal volume of stop/detection solution was added according to the manufacture's instruction (CisBio Bioassays). The stop/detection solution contained Eu^3+ cryptate-conjugated anti-phospho MEK1/2 (Ser217/221) rabbit polyclonal antibody and d2-conjugated anti-GST mouse monoclonal antibody in buffer containing 25 mM Tris pH7.4, 400 mM KF, 50 mM EDTA, 0.01% BSA and 0.01% Triton X-100. Plates were sealed and incubated at room temperature for 2 hours, and the TR-FRET signals (ratio of fluorescence emission at 665 nm over emission at 620 nm with excitation at 337 nm wavelength) were recorded on a PHERAstar FS plate reader (BMG Labtech). Phosphorylation of MEK1 led to the binding of anti-phospho-MEK1/2 antibody to GST-MEK1 protein that place fluorescent donor (Eu^3+ crypate) in close proximity to the accepter d2 on the anti-GST antibody, thus resulting in a high degree of fluorescence resonance energy transfer from the donor fluorophore (at 620 nm) to the acceptor fluorophore (at 665 nm). […] The IC50 for each compound was derived from fitting the dose-response % inhibition data to the four-parameter logistic model by Graphpad Prism software.
# [4] = system: A375; experiment: Anti-proliferative activity EC50 assay (CellTiter-Glo) in A375; type: cell-based; settings: Homo sapiens, A-375, 72 h; 3-day exposure; read-out: Cell Proliferation EC50 (nM) A375
# Method: The growth-inhibitory activity of compounds in A375 and p61-A375, was determined using CellTiter-Glo luminescent cell viability assay (Promega). The 2,000 cells were seeded per well of a 96-well plate to ensure logarithmic growth could occur over the 3 days treatment period. Cells were left to attach for 16 hours, cells were treated in duplicate with a 10-point dilution series. Following a 3-day exposure to compounds disclosed herein, a volume of CellTiter-Glo reagent equal to the volume of cell culture medium present in each well was added. Mixture was mixed on an orbital shaker for 2 minutes to allow cell lysis, followed by 10 minutes incubation at room temperature to allow stabilization of luminescent signal, which corresponded to quantitation of ATP and thus the quantitation of metabolically active cells. Luminescent signal was measured using Pherastar FS reader (BMG Labtech).
# EC50 values for growth inhibition were calculated by fitting dose-dependent data to the four-parameter logistic model using GraphPad Prism software.
# [5] = 2.5 mM ATP, read-out: IC50 (nM) B-Raf^WT 2.5 mM ATP
# [6] = Km ATP (2.9 μM ATP), read-out: IC50 (nM) B-Raf^WT Km ATP
# Sequence of wild type B-Raf (P15056 whole entry): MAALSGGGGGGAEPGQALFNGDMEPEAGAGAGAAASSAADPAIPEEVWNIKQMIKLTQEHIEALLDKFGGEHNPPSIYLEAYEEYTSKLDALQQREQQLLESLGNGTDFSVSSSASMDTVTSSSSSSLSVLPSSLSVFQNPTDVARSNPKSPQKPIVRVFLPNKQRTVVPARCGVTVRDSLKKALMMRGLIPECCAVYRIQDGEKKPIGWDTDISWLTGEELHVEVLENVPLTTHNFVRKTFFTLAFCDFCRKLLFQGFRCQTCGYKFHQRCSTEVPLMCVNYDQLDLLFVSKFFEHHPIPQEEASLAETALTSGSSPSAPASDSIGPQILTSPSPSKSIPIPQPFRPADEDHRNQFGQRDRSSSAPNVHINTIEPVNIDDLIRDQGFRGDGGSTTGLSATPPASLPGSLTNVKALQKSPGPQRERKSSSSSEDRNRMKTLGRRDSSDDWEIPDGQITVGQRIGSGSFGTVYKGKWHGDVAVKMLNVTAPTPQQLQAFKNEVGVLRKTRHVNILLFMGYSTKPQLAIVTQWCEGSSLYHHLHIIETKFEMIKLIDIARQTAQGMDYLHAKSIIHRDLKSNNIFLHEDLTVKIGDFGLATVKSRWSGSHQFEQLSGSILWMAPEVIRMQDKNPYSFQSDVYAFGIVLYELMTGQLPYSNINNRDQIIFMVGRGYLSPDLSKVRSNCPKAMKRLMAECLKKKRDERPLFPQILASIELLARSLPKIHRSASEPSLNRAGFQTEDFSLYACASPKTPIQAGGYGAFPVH
# Sequence of B-Raf (V600E) (P15056 whole entry V600E): as the sequence (P15056 whole entry) above, with V600E counted along it
# Sequence of C-Raf (Y340D/Y341D) (P04049 whole entry Y340D/Y341D): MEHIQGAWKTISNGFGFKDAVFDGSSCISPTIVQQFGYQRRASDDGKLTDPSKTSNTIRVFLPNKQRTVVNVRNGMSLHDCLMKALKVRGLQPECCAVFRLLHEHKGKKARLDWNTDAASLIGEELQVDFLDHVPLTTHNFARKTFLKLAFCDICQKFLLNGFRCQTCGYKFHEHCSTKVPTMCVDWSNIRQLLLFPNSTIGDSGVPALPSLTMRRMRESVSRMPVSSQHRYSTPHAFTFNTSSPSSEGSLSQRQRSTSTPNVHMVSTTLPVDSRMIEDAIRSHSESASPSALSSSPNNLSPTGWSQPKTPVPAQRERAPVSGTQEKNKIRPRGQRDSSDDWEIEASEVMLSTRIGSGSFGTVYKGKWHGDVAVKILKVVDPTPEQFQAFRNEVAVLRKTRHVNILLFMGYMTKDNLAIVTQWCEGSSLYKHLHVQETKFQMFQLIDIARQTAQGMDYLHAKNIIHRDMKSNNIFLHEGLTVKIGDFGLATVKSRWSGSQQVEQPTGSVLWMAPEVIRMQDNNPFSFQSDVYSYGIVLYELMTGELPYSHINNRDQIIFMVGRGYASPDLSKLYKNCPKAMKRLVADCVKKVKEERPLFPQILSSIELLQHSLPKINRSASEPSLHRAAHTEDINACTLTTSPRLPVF
Compound,"IC50 [1, 5] [nM]","IC50 [1, 6] [nM]",IC50 [2] [nM],IC50 [3] [nM],EC50 [4] [nM]
"O=C1CCc2c(Oc3ccc4c(c3)[C@H]3[C@H](NC(=O)Nc5cccc(C(F)(F)F)c5)[C@H]3O4)ccnc2N1 [Compound 1.1, 1-((1S,1aS,6bS)-5-((7-oxo-5,6,7,8-tetrahydro-1,8-naphthyridin-4-yl)oxy)-1a,6b-dihydro-1H-cyclopropa[b]benzofuran-1-yl)-3-(3-(trifluoromethyl)phenyl)urea]",43,13,8.3,1.6,109
O=C1CCc2c(Oc3ccc4c(c3)[C@H]3[C@H](NC(=O)Nc5cc(C(F)(F)F)ccn5)[C@H]3O4)ccnc2N1 [Compound 1.2],18,6.3,4,0.77,122
COc1cccc(NC(=O)N[C@@H]2[C@H]3Oc4ccc(Oc5ccnc6c5CCC(=O)N6)cc4[C@@H]23)c1Cl [Compound 1.6],11,4.5,1.9,0.33,229
Cc1cc(Cl)ccc1NC(=O)N[C@@H]1[C@H]2Oc3ccc(Oc4ccnc5c4CCC(=O)N5)cc3[C@@H]12 [Compound 1.7],,2.6,1.1,0.35,
O=C1CCc2c(Oc3ccc4c(c3)[C@H]3[C@H](NC(=O)Nc5ccc(Cl)cc5C(F)(F)F)[C@H]3O4)ccnc2N1 [Compound 1.9],,21,9.5,1.6,
O=C1CCc2c(Oc3ccc4c(c3)[C@H]3[C@H](NC(=O)Nc5cc(F)cc(C(F)(F)F)c5)[C@H]3O4)ccnc2N1 [Compound 1.11],110,30,5.5,1.8,147
O=C1CCc2c(Oc3ccc4c(c3)[C@H]3[C@H](NC(=O)Nc5cccc(C(F)(F)F)c5F)[C@H]3O4)ccnc2N1 [Compound 1.12],86,23,4.7,1.1,106
O=C1CCc2c(Oc3ccc4c(c3)[C@H]3[C@H](NC(=O)Nc5ccc(C(F)(F)F)cc5F)[C@H]3O4)ccnc2N1 [Compound 1.20],,23,13,2.7,
O=C1CCc2c(Oc3ccc4c(c3)[C@H]3[C@H](NC(=O)Nc5ccccc5F)[C@H]3O4)ccnc2N1 [Compound 1.21],2.5,0.87,1.1,0.066,128
O=C1CCc2c(Oc3ccc4c(c3)[C@H]3[C@H](NC(=O)Nc5cccc(F)c5)[C@H]3O4)ccnc2N1 [Compound 1.22],4.2,1.7,1.3,0.18,87
Cc1cc(NC(=O)N[C@@H]2[C@H]3Oc4ccc(Oc5ccnc6c5CCC(=O)N6)cc4[C@@H]23)ccc1F [Compound 1.24],7.7,2.7,1.5,0.37,25
O=C1CCc2c(Oc3ccc4c(c3)[C@H]3[C@H](NC(=O)Nc5ccc(Cl)c(C(F)(F)F)c5)[C@H]3O4)ccnc2N1 [Compound 1.25],,33,27,2.3,25
O=C1CCc2c(Oc3ccc4c(c3)[C@H]3[C@H](NC(=O)Nc5ccc(Cl)c(Cl)c5)[C@H]3O4)ccnc2N1 [Compound 1.28],49,16,5.5,0.77,40
O=C1CCc2c(Oc3ccc4c(c3)[C@H]3[C@H](NC(=O)Nc5c(F)cc(F)cc5F)[C@H]3O4)ccnc2N1 [Compound 1.40],,2,1.6,0.2,
O=C1CCc2c(Oc3ccc4c(c3)[C@H]3[C@H](NC(=O)Nc5ccc(F)cc5)[C@H]3O4)ccnc2N1 [Compound 1.41],,0.57,0.8,0.15,65
O=C1CCc2c(Oc3ccc4c(c3)[C@H]3[C@H](NC(=O)Nc5cccc(F)c5F)[C@H]3O4)ccnc2N1 [Compound 1.42],,1.5,0.94,0.24,178
O=C1CCc2c(Oc3ccc4c(c3)[C@H]3[C@H](NC(=O)Nc5cc(F)ccc5F)[C@H]3O4)ccnc2N1 [Compound 1.43],5.9,2.1,1.2,0.26,96
O=C1CCc2c(Oc3ccc4c(c3)[C@H]3[C@H](NC(=O)Nc5c(F)cccc5F)[C@H]3O4)ccnc2N1 [Compound 1.44],,1.9,1.3,0.21,702
O=C1CCc2c(Oc3ccc4c(c3)[C@H]3[C@H](NC(=O)Nc5ccc(F)c(F)c5F)[C@H]3O4)ccnc2N1 [Compound 1.46],6,1.7,0.78,0.22,109
O=C1CCc2c(Oc3ccc4c(c3)[C@H]3[C@H](NC(=O)Nc5cc(F)c(F)c(F)c5)[C@H]3O4)ccnc2N1 [Compound 1.47],23,6.4,4.1,0.53,140
O=C1CCc2c(Oc3ccc4c(c3)[C@H]3[C@H](NC(=O)NC5CCCCC5)[C@H]3O4)ccnc2N1 [Compound 1.66],,2.3,2.3,0.25,101
"CC(C)(N)c1cc(NC(=O)N[C@@H]2[C@H]3Oc4ccc(Oc5ccnc6c5CCC(=O)N6)cc4[C@@H]23)cc(C(F)(F)F)c1 [Compound 1.70, 1-(3-(2-aminopropan-2-yl)-5-(trifluoromethyl)phenyl)-3-((1S,1aS,6bS)-5-((7-oxo-5,6,7,8-tetrahydro-1,8-naphthyridin-4-yl)oxy)-1a,6b-dihydro-1H-cyclopropa[b]benzofuran-1-yl)urea]",,15,7.4,0.81,
"CCN1CCN(Cc2ccc(NC(=O)N[C@@H]3[C@H]4Oc5ccc(Oc6ccnc7c6CCC(=O)N7)cc5[C@@H]34)cc2C(F)(F)F)CC1 [Compound 1.73, 1-(4-((4-ethylpiperazin-1-yl)methyl)-3-(trifluoromethyl)phenyl)-3-((1S,1aS,6bS)-5-((7-oxo-5,6,7,8-tetrahydro-1,8-naphthyridin-4-yl)oxy)-1a,6b-dihydro-1H-cyclopropa[b]benzofuran-1-yl)urea]",,13,13,0.84,1330
"COc1cc(NC(=O)N[C@@H]2[C@H]3Oc4ccc(Oc5ccnc6c5CCC(=O)N6)cc4[C@@H]23)ccn1 [Compound 1.75, 1-(2-methoxypyridin-4-yl)-3-((1S,1aS,6bS)-5-((7-oxo-5,6,7,8-tetrahydro-1,8-naphthyridin-4-yl)oxy)-1a,6b-dihydro-1H-cyclopropa[b]benzofuran-1-yl)urea]",,2.4,2.2,0.27,405
O=C1CCc2c(Oc3ccc4c(c3)[C@H]3[C@H](NC(=O)N[C@H]5CCCc6ccccc65)[C@H]3O4)ccnc2N1 [Compound 1.79],,,3.2,0.39,222
O=C1CCc2c(Oc3ccc4c(c3)[C@H]3[C@H](NC(=O)N[C@@H]5CCCc6ccccc65)[C@H]3O4)ccnc2N1 [Compound 1.80],,,4,0.5,132
CNC(=O)c1cc(Oc2ccc3c(c2)[C@H]2[C@H](NC(=O)Nc4cc(F)c(F)cc4F)[C@H]2O3)ccn1 [Compound 2.8],,17,13,3,
